CCCCn1cc[n+](C)c1.F[P-](F)(F)(F)(F)F [1-butyl-3-methylimidazolium hexafluorophosphate]
Settings	surface tension liquid-gas [mN/m]
287.6 K	44.41
288.14 K	44.47
292.88 K	44.11
292.99 K	44.28
297.86 K	44.03
298.34 K	43.82
303.33 K	43.64
303.37 K	43.51
307.96 K	43.24
308.21 K	43.46
312.44 K	43.13
312.88 K	42.9
317.86 K	42.58
318.23 K	42.75
322.81 K	42.21
322.98 K	42.45
327.89 K	42.14
327.91 K	41.94
332.84 K	41.86
333.31 K	41.63
337.59 K	41.57
337.97 K	41.37
342.86 K	41.05
343.06 K	41.34
348.16 K	40.95
348.34 K	40.8
352.78 K	40.47
352.99 K	40.75

CCCCCCn1cc[n+](C)c1.F[P-](F)(F)(F)(F)F [1-hexyl-3-methylimidazolium hexafluorophosphate]
Settings	surface tension liquid-gas [mN/m]
284.3 K	39.12
284.36 K	39.1
288.16 K	38.86
288.25 K	38.81
293.48 K	38.6
293.56 K	38.7
298.97 K	38.25
299.02 K	38.21
303.58 K	37.99
303.67 K	37.89
308.56 K	37.61
308.58 K	37.78
313.45 K	37.26
313.53 K	37.3
318.45 K	36.88
318.5 K	36.94
323.12 K	36.67
323.16 K	36.78
327.89 K	36.28
327.92 K	36.29
333.78 K	36.05
333.82 K	35.99
337.92 K	35.68
337.94 K	35.74
343.05 K	35.48
343.09 K	35.29
347.67 K	35.21
347.75 K	35.09
353.68 K	34.7
353.76 K	34.87

CCCn1cc[n+](C)c1.F[P-](F)(F)(F)(F)F [1-methyl-3-propylimidazolium hexafluorophosphate]
Settings	surface tension liquid-gas [mN/m]
318.33 K	46.41
318.39 K	46.75
323.12 K	46.09
323.13 K	46.33
328.13 K	45.76
328.14 K	45.93
332.59 K	45.52
332.63 K	45.2
333.28 K	45.82
338.14 K	45.65
338.21 K	45.14
343.25 K	44.83
343.26 K	44.86
348.02 K	44.66
348.08 K	44.54
352 K	44.38
352.08 K	44.31

CCCCCCCC[n+]1ccn(C)c1.F[P-](F)(F)(F)(F)F [1-octyl-3-methylimidazolium hexafluorophosphate]
Settings	surface tension liquid-gas [mN/m]
283.91 K	34.75
283.92 K	34.62
287.88 K	34.48
293.41 K	34.14
293.42 K	34.36
298.13 K	33.95
302.95 K	33.56
303 K	33.48
308.1 K	33.27
308.14 K	33.32
313.47 K	32.98
313.51 K	33.16
318.02 K	32.9
318.04 K	32.8
322.73 K	32.52
322.79 K	32.46
327.97 K	32.12
327.98 K	32.25
332.98 K	32.02
333.05 K	31.93
337.93 K	31.81
337.95 K	31.68
342.84 K	31.46
343 K	31.53
348.12 K	31.26
348.18 K	31.15
353.56 K	30.94
353.62 K	30.83
